The test system of assay [1] is Pgp C952A control and the five aromatic replacement mutants (Y303A, Y306A, F724A, F728A, F979A). The experiment in a line: Effect of BDE-100 on basal and verapamil-stimulated ATPase activity. The assay is classed as biochemical, mouse. The following applies: BDE-100 at 50, 75 and 100 µM. The procedure:
Figure 3 The effect of BDE-100 on the verapamil-stimulated ATPase activity of the six Pgp mutations. […]. The level of BDE-100 inhibition of the verapamil-stimulated ATPase EC50 for each mutant is also shown. P values were determined from a two-tailed unequal variance test: ****, p ≤ 0.0001; ***, p ≤0.0001–0.001; *, p ≤0.05–0.01. […]
(Figure 4) were chosen to yield a more finely sampled dose response for this figure. BDE-100 alone had little effect on Pgp ATPase activity. Inhibitory effects of BDE-100 at 50 µM, 75 µM and 100 µM on the Verapamil-EC50 specific to each mutant were determined. All measurements were determined with seven independent measurements (n=7).
(1 picture or pasted object on this page, not shown here)

Assay [2] addresses T1, Pgp C952A (Mus musculus, UniProt P21447, C952A).
T1 construct: 6xHis (C); made in house; host or cells: Pichia pastoris
Description: Co-crystal structure, occupancy refinement of BDE-100. Format: binding. The procedure:
(§1) To reproduce the binding of BDE-100 to Pgp and maintain crystal isomorphism, we utilized the reductive-methylation protocol of Ward et al. (2013[▸]) with some modifications. Fresh dimethylamine–borane (20 mM; Sigma–Aldrich) and 16% formaldehyde (40 mM; Thermo Scientific) were added to 1–3 mg mouse Pgp. The mixture was incubated for 2 h at 4°C and further dimethylamine–borane and formaldehyde were added after 2 h. After incubation for 16 h at 4°C, the reaction was quenched with cold glycine on ice for 2 h and flushed with SEC buffer (10 mM Tris–HCl pH 7.5, 75 mM NaCl, 0.0375% DDM, 0.04% sodium cholate, 0.1 mM TCEP). The eluted protein was concentrated to 2–3 mg ml^−1 and incubated with 0.5 mM BDE-100 (AccuStandard) dissolved in DMSO in the dark for 16 h at 4°C. The precipitate was centrifuged and the extracted sample was […] 1:10 in SEC buffer to give a final concentration of 10–13 mg ml^−1. Crystallization was set up using 3 µl sitting drops in 24-well Cryschem plates (Hampton Research) with a 1:1 ratio of protein solution and reservoir solution [0.1 M HEPES, 50 mM lithium sulfate, 10 mM EDTA, 26–28.5%(w/v) polyethylene glycol (PEG) 600 pH 7.9–8.4]. Crystals could be visualized after ∼3 days at 4°C and reached full size in ∼4 weeks.
(§2) X-ray diffraction data were collected at 100 K on beamline 23-ID-D at the Advanced Photon Source (APS). MAD scans were obtained from Pgp–BDE-100 co-crystals near the Br K edge to optimize for the strongest anomalous signal at the beginning of each data-collection session and whenever data were collected from a new mutant. The data were processed, integrated and scaled with HKL-2000 (Otwinowski & Minor, 1997[▸]). The Pgp structures were solved by molecular replacement using the previously solved BDE-100 complex structure (PDB entry 4xwk; Nicklisch et al., 2016[▸]) without the BDE-100 (Table 1 ▸) using an initial rigid-body refinement of the two pseudosymmetric halves of the protein. Subsequent rounds included the full molecule with chains linked including ligands. Phenix.elbow was used to produce ligand description dictionaries (Adams et al., 2010[▸]) and the placement of BDE-100 was verified by anomalous scattering of the Br atoms and OMIT density (see Fig. 1 ▸ for top views, Supplementary Fig. S1 for side views and Supplementary Fig. S2 for ligand F o − F c OMIT maps) calculated via CNS (Brünger et al., 1998[▸]). The structures agreed with the previously solved structure as our control mutant (C952A) contained BDE-100 in the same position based on experimental data. All models were subjected to rigid-body, xyz, group B-factor and individual B-factor refinement using phenix.refine (Afonine et al., 2010[▸]) and the model geometry was monitored using MolProbity (Chen et al., 2010[▸]) in the absence of the ligand. The BDE-100 atoms were then modeled and the structures were subjected to the same refinement steps including occupancy refinement using an occupancy of 0.5 as the starting point. […] We conclude there is a sufficient data-to-parameter ratio to refine both B factors and occupancy for the BDE-100 ligand in PDB entry 4xwk as well as in all of our structures. Our own refinement of PDB entry 4xwk yielded a ligand occupancy of 0.66 and our control mutant C952A agreed very well, with a refined occupancy of 0.67 (for a full list, see Table 2 ▸). The refined occupancy values for ligands also agreed very well with the intensities of their respective anomalous difference Fourier electron densities. Data statistics and parameters supporting the quality of the structures are presented in Table 1 ▸ and Supplementary Table S1. Figures were prepared and r.m.s.d.s were calculated in PyMOL (version 1.8; Schrödinger). […]

In assay [3] the target is T2, Pgp C952A/F724A (Mus musculus, UniProt P21447, C952A/F724A).
T2 construct: 6xHis (C); made in house; host or cells: Pichia pastoris
Described as above. Format: binding. The procedure:
as §1, §2

The target of assay [4] is T3, Pgp C952A/F728A (Mus musculus, UniProt P21447, C952A/F728A).
T3 construct: 6xHis (C); made in house; host or cells: Pichia pastoris
The assay is described as above. Format: binding. The procedure:
as §1, §2

Assay [5] deals with T4, Pgp C952A/F979A (Mus musculus, UniProt P21447, C952A/F979A).
T4 construct: 6xHis (C); made in house; host or cells: Pichia pastoris
The assay is described as above. Format: binding. The procedure: as §1, §2

Assay [6] has as its target T5, Pgp C952A/Y303A (Mus musculus, UniProt P21447, C952A/Y303A).
T5 construct: 6xHis (C); made in house; host or cells: Pichia pastoris
Described as above. The assay is classed as binding. How it is done: as §1, §2

Assay [7] concerns the target T6, Pgp C952A/Y306A (Mus musculus, UniProt P21447, C952A/Y306A).
T6 construct: 6xHis (C); made in house; host or cells: Pichia pastoris
The assay is described as above. The assay is classed as binding. The procedure:
as §1, §2

The target of assay [8] is Pgp (PDB entry 4xwk) (Mus musculus, UniProt P21447). Description: Authors' own occupancy refinement of the published Pgp-BDE-100 structure. The assay is classed as binding. As to conditions: own refinement using the deposited structure factors. The source says: X-ray diffraction data were collected at 100 K on beamline 23-ID-D at the Advanced Photon Source (APS). MAD scans were obtained from Pgp–BDE-100 co-crystals near the Br K edge to optimize for the strongest anomalous signal at the beginning of each data-collection session and whenever data were collected from a new mutant. The data were processed, integrated and scaled with HKL-2000 (Otwinowski & Minor, 1997[▸]). The Pgp structures were solved by molecular replacement using the previously solved BDE-100 complex structure (PDB entry 4xwk; Nicklisch et al., 2016[▸]) without the BDE-100 (Table 1 ▸) using an initial rigid-body refinement of the two pseudosymmetric halves of the protein. […] Phenix.elbow was used to produce ligand description dictionaries (Adams et al., 2010[▸]) and the placement of BDE-100 was verified by anomalous scattering of the Br atoms and OMIT density (see Fig. 1 ▸ for top views, Supplementary Fig. S1 for side views and Supplementary Fig. S2 for ligand F o − F c OMIT maps) calculated via CNS (Brünger et al., 1998[▸]). […] All models were subjected to rigid-body, xyz, group B-factor and individual B-factor refinement using phenix.refine (Afonine et al., 2010[▸]) and the model geometry was monitored using MolProbity (Chen et al., 2010[▸]) in the absence of the ligand. […] Figures were prepared and r.m.s.d.s were calculated in PyMOL (version 1.8; Schrödinger). […]

For assay [9], the system named is wild-type Pgp. Details: method as in Nicklisch et al., 2016. The following applies: ref Nicklisch et al., 2016, cited from earlier work.

We go through 1 compound from publication PMC7340268, “Structural definition of polyspecific compensatory ligand recognition by P-glycoprotein” (IUCrJ, 2020).

SMILES strings stand for the structures. “Also recorded” adds a separate entry of the source. Marks after values point to notes of the source that are not given here.

T5 sequence (P21447 whole entry Y303A/C952A): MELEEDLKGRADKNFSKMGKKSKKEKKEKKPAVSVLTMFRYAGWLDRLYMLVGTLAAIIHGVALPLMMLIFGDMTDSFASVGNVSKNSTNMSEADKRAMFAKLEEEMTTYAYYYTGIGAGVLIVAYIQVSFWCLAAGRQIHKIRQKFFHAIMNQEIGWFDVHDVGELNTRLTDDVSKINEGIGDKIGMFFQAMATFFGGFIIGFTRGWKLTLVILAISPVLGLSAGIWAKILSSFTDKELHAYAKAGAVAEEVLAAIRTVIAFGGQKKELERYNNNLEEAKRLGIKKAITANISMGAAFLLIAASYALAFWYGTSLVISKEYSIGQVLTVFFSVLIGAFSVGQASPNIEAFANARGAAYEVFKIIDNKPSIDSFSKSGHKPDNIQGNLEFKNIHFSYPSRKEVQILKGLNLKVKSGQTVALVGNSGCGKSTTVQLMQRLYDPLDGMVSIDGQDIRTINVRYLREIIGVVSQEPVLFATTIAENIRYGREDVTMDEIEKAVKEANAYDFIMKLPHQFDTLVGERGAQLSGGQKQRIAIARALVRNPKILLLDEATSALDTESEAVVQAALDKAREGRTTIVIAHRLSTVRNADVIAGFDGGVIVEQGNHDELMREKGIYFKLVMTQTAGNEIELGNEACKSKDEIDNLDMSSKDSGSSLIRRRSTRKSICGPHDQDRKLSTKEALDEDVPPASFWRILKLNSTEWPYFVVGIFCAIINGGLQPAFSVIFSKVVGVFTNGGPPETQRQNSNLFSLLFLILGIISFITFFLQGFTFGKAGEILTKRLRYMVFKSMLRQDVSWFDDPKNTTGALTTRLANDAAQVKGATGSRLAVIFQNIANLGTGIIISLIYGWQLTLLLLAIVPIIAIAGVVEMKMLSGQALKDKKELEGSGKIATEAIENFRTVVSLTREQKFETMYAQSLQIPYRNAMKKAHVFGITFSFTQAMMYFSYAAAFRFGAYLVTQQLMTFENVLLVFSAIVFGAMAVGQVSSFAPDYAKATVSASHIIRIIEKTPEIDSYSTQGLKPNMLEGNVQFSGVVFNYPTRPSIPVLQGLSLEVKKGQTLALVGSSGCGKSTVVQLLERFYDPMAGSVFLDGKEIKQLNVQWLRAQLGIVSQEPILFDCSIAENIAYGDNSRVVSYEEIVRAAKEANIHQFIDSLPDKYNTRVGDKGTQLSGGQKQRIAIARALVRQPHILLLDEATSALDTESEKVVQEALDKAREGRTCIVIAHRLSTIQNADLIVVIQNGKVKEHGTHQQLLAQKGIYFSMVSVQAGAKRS
T6 sequence (P21447 whole entry Y306A/C952A): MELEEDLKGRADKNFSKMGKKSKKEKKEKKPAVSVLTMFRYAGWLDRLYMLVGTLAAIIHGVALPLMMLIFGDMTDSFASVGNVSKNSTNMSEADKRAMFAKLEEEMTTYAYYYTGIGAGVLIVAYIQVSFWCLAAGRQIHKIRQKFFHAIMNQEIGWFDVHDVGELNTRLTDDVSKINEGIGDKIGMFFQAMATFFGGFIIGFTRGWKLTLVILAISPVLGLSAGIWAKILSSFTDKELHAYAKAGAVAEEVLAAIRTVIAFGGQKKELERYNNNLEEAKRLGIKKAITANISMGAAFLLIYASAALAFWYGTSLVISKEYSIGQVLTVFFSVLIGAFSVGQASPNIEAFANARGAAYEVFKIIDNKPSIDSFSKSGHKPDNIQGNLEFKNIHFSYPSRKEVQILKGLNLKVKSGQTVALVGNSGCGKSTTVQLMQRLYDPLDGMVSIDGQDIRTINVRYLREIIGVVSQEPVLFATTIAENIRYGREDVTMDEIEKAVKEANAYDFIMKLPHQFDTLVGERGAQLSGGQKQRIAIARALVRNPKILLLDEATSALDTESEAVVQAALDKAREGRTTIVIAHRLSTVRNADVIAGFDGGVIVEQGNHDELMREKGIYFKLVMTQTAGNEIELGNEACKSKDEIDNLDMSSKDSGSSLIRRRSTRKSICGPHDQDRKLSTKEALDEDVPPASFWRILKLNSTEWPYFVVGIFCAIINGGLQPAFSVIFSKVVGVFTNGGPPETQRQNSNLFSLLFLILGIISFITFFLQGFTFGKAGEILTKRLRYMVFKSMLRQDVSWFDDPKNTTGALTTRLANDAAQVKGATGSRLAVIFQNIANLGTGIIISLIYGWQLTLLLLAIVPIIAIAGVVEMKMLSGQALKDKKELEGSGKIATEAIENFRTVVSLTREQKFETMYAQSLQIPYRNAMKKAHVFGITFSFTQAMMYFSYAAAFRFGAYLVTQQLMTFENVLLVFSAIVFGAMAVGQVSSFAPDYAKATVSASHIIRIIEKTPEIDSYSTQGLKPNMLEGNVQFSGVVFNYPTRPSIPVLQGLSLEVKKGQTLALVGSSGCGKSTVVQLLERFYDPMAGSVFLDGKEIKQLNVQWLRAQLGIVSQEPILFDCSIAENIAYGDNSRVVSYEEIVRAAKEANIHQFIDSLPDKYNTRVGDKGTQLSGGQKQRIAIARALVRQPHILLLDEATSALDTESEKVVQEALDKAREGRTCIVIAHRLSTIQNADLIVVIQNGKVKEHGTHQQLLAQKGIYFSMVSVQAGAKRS
T1 sequence (P21447 whole entry C952A): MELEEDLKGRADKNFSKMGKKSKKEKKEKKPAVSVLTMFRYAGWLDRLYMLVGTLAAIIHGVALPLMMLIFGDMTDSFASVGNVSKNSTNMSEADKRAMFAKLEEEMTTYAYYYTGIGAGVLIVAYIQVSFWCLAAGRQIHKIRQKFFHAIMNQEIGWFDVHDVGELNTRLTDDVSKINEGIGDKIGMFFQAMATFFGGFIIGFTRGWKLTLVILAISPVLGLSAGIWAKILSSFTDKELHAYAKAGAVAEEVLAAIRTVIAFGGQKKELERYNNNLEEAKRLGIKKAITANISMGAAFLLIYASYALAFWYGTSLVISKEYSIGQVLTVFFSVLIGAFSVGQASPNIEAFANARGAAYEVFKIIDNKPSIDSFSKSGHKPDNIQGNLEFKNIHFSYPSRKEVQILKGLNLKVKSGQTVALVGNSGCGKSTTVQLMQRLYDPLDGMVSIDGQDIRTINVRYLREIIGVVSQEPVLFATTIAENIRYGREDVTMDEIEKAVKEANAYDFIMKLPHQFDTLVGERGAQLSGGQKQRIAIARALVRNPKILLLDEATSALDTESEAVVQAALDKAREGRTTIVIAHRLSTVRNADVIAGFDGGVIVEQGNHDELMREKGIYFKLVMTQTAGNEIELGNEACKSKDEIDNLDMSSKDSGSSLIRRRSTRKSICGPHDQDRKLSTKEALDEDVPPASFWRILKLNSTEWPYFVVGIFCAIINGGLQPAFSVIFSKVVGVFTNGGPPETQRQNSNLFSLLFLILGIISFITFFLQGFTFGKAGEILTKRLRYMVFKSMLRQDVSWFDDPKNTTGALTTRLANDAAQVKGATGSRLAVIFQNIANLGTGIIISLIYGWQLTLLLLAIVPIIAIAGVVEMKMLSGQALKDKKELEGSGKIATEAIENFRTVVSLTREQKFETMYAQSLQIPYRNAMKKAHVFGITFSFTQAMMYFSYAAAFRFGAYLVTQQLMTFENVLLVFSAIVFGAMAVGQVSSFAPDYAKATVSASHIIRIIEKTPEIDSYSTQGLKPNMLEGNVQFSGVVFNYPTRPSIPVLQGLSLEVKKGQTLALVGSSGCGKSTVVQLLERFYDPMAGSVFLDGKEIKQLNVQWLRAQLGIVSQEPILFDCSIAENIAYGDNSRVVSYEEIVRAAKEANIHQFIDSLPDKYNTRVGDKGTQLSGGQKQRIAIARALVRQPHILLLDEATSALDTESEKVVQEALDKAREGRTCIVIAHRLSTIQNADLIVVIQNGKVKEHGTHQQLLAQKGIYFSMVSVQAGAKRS
T3 sequence (P21447 whole entry F728A/C952A): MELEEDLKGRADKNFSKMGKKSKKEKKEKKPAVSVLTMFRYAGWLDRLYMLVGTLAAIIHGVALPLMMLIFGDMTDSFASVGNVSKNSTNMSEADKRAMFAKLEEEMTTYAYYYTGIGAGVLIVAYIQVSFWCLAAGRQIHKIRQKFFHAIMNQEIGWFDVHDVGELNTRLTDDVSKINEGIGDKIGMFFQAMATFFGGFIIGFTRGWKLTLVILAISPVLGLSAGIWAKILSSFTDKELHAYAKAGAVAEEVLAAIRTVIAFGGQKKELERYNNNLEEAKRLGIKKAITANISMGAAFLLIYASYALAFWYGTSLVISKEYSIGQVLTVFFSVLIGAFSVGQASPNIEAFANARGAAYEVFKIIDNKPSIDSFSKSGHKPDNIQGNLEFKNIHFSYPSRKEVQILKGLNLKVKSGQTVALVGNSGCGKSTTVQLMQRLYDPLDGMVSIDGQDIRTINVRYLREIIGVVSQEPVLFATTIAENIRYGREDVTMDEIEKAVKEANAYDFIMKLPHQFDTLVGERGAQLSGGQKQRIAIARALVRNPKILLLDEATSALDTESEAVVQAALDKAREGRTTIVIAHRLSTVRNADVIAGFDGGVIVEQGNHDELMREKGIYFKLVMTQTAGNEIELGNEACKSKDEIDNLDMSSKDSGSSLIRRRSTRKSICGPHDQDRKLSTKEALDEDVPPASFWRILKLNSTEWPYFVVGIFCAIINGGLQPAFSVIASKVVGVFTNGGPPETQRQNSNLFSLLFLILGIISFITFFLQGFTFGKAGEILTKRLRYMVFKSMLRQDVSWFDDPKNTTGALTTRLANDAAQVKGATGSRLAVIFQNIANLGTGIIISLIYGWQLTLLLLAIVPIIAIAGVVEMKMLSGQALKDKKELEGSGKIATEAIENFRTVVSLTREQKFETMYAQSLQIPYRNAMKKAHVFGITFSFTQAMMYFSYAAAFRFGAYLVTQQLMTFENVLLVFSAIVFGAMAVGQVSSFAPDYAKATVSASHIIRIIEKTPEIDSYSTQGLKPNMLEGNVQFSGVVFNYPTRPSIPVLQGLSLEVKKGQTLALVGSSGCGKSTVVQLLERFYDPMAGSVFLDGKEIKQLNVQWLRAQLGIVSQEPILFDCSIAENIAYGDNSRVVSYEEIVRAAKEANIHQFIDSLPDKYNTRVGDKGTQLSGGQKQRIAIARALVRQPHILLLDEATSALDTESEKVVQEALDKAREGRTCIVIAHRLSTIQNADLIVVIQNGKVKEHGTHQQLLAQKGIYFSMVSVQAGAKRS

`Brc1ccc(Oc2c(Br)cc(Br)cc2Br)c(Br)c1` [BDE-100]: the “Effect of BDE-100 alone on basal ATPase activity” value in [1] (absence of verapamil, C952A control and five mutants) is on record as “did not increase the basal ATPase activity; also recorded: little effect”; in assay [9] (wild-type Pgp), “did not increase the basal ATPase activity”. In assay [1] (at the verapamil EC50 determined for each mutant), the “Effect of BDE-100 on verapamil-stimulated ATPase activity” value is listed as “inhibited; also recorded: significant inhibitory effect”. The “Occupancy of BDE-100, site 1” value in [2] (C952A) stood at 67%; in assay [5], 65%; in assay [6] it was 64%; in assay [7], 68%; in assay [8], 66%. In addition, the “Refined ligand occupancy, site 1” value in assay [2] (C952A control, as fraction) is listed as 0.67; in assay [8] (as fraction) it was 0.66. In addition, in assay [3], the “Occupancy of BDE-100, site 3” value came to 35%. Further, in [4], the “Occupancy of BDE-100, site 1 (designated site 1A)” value is listed as 53 ^† %. Also, the “Occupancy of BDE-100, site 2” value in assay [4] is recorded as 48%; in assay [6], 56%; in assay [7], 49%. Further, the “Inhibition of verapamil-stimulated ATPase activity” value in assay [9] is “potent inhibitor”.
